Assay results reported in PMC11233931, “Remodeling tumor‐associated macrophage for anti‐cancer effects by rational design of irreversible inhibition of mitogen‐activated protein kinase‐activated protein kinase 2” (MedComm, 2024).

Columns and labels:
Assay in all cases: Eurofins kinase selectivity profile against 380 other human recombinant kinases (Table S2)
Type in all cases: biochemical
[1] = molecular target: T1, 380 human recombinant protein kinases (Homo sapiens, UniProt Q99759); details: MEKK3(h), read-out: Inhibition rate
T1 construct: purchased Eurofins (Celle Lévescault)
T1 sequence (Q99759 1-626): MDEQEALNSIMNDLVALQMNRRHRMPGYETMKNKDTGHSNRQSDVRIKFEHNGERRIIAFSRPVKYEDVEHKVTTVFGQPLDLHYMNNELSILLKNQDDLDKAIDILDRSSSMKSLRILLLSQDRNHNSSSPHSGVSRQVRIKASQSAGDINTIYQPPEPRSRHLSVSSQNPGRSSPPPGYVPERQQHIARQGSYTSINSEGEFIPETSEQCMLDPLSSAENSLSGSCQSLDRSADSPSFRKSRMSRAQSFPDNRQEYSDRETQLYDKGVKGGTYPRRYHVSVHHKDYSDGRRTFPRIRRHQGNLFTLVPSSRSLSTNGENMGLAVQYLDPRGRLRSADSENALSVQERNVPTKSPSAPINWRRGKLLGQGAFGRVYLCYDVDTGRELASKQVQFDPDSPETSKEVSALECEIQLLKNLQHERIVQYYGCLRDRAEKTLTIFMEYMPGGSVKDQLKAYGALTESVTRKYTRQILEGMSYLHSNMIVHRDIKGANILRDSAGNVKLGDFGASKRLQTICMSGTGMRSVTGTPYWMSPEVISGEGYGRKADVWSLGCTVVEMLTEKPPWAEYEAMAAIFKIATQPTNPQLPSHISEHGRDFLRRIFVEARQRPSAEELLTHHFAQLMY
In short: (§1)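 Commercial selectivity screen of the test compound against a panel of 380 human recombinant protein kinases, run by an outside contractor at several compound concentrations to check whether its potency was specific for MK2.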

[2] = molecular target: T2, 380 human recombinant protein kinases (Homo sapiens, UniProt O75385); details: ULK1(h), read-out: Inhibition rate (%)
T2 construct: purchased Eurofins (Celle Lévescault)
T2 sequence (O75385 1-1050): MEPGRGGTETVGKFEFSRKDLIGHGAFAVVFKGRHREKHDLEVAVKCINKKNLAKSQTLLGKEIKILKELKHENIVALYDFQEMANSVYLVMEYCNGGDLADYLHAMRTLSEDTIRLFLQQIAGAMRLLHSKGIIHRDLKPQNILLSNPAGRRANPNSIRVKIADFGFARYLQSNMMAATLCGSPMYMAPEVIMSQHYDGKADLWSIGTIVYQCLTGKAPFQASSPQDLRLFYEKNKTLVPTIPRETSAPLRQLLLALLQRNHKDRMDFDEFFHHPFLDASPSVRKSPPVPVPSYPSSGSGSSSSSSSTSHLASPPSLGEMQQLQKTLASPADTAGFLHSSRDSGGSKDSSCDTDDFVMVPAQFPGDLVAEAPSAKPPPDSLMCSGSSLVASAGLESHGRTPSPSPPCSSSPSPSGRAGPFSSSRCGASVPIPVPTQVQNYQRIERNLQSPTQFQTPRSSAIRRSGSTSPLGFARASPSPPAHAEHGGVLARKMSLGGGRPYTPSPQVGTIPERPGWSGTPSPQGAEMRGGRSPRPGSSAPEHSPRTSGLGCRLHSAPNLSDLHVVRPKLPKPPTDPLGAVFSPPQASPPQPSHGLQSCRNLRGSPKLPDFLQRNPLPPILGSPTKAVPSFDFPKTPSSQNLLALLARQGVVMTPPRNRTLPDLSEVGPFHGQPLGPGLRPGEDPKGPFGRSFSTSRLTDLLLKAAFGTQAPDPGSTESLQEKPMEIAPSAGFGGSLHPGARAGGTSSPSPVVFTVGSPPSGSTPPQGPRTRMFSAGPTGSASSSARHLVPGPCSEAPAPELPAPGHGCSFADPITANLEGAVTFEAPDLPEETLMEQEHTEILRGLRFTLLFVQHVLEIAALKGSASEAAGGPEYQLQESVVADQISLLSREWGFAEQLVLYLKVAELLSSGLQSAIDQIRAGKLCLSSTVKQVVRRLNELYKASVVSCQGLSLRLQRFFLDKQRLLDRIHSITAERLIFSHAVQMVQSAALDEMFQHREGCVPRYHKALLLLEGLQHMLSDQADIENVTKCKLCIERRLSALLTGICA
In short: as §1

[3] = molecular target: T3, 380 human recombinant protein kinases (Homo sapiens, UniProt Q06418); details: Rse(h), read-out: Inhibition rate
T3 construct: purchased Eurofins (Celle Lévescault)
T3 sequence (Q06418 41-890): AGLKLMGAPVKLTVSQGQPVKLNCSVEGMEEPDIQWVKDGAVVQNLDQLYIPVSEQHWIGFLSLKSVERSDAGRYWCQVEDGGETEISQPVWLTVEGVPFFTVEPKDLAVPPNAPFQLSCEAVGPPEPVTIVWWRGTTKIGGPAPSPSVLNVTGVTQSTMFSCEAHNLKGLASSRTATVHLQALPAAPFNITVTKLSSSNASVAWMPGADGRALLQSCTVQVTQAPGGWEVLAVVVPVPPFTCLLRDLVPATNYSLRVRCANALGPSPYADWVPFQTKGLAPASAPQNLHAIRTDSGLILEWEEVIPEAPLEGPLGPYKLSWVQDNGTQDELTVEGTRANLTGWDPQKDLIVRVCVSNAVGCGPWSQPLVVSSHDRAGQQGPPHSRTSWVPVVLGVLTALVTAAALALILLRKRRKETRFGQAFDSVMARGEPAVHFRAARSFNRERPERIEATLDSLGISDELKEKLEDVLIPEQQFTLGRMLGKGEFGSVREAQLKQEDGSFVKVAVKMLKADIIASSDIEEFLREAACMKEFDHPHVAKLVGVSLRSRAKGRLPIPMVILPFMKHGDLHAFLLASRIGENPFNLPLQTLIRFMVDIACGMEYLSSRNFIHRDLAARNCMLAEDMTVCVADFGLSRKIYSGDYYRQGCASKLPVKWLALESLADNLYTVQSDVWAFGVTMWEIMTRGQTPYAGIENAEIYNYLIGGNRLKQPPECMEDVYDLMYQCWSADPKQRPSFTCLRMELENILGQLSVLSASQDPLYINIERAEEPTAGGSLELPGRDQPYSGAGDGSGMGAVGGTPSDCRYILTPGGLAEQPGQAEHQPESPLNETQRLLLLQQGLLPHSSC
In short: as §1

Q: For C=CC(=O)Nc1cc(-c2cc(-c3cc4c([nH]3)CCNC4=O)ccn2)ccc1OC(F)(F)F [compound 11], which inhibition at 0.01 µM ([1]; 10 nM) is on record?
A: Its inhibition at 0.01 µM is -5%.

Q: And the inhibition at 0.1 µM ([1]; 100 nM)?
A: Its inhibition at 0.1 µM is 11%.

Q: And the inhibition at 1 µM ([1]; 1000 nM)?
A: The inhibition at 1 µM was 12%.

Q: What about the inhibition at 0.01 µM ([2]; 10 nM) of the same compound?
A: Its inhibition at 0.01 µM is 6%.

Q: What about the inhibition at 0.1 µM ([2]; 100 nM) of the same compound?
A: Its inhibition at 0.1 µM is -8%.

Q: What about the inhibition at 1 µM ([2]; 1000 nM) of the same compound?
A: Its inhibition at 1 µM is -3%.

Q: What about the inhibition at 0.01 µM ([3]; 10 nM) of the same compound?
A: Its inhibition at 0.01 µM is 7%.

Q: And the inhibition at 0.1 µM ([3]; 100 nM)?
A: The inhibition at 0.1 µM was -3%.

Q: What about the inhibition at 1 µM ([3]; 1000 nM) of the same compound?
A: The inhibition at 1 µM was -5%.
